Entries after “also recorded” stand apart in the source; their conditions may differ.
Experiments:
[1] = system: NSC-34 cells; assay: LDH assay (cytotoxicity) in NSC-34 cells; assay type: cell-based; details: for toxicity independently of GR and PR treatment: no DRP
Source text: LDH Assay: The LDH assay is a colorimetric assay that measures cell toxicity and death. […] When cells lose membrane integrity, an enzyme found in living cells called lactate dehydrogenase (LDH) is released into the solution surrounding the dying cell. A form of programmed cell death, apoptosis, as well as other forms of cell death also ultimately lead to a cell's membrane being destroyed, resulting in a large release of LDH into the extracellular space. Thus, LDH is an excellent marker not only for necrosis, but for all instances of cell death. In an LDH assay, a sample of the solution surrounding the cell is isolated, and transferred to a plate containing an LDH reaction mixture. This reaction mixture contains a tetrazolium salt intermediate and other reaction constituents that, when exposed to LDH, convert the tetrazolium salt into a colored Formazan product. This Formazan product can be quantified spectrophotometrically. Greater absorbance readings correspond to more cell death.
One row on the top and bottom of the plate, and two columns on either side of the plate, were left without cells and contained culture medium only to minimize experimental well volume evaporation. After plating, cells were incubated for 24 h at 37° C., 5% CO2 prior to DRP and/or PRMT inhibitor addition. At time of DRP/PRMT inhibitor addition, desired doses of DRP for challenge and inhibitor for treatment were achieved by diluting aliquots of each stock in warm culture medium. During experiments where both PRMT inhibitors and DRPs were used, PRMT inhibitors were always applied to wells first, and followed by DRP application. […] Inhibitor toxicity controls were included as wells treated with the desired doses of drug for the experiment, but no DRP. DRP toxicity controls were included as wells only treated with the doses of DRP used for challenge. Once dosed, plates were incubated for 24 h at 37° C., 5% CO2 prior to running the WST-1 or LDH assay endpoints. Additional controls needed for each endpoint are specified in the “WST-1 Assay” and “LDH Assay” sections of these methods.
LDH Assay: Cells were plated and prepared using the steps described in the “Plating NSC-34 and Dosing with DRPs and PRMT Inhibitors” section of these methods. Other controls for this experiment included several sets of wells with only cells in culture medium (one triplicate designated for “untreated,” one triplicate designated for “lysed” positive control), and wells with culture medium only. An additional control added only to the transfer plate at time of testing was 5 μL LDH only. Testing was performed using colorimetric LDH-Cytotoxicity Assay Kit II (Abcam, Cambridge, MA, USA) per manufacturer's instructions. Final read at 450 nm was performed on a SpectraMax M3 Microplate Reader (Molecular Devices, San Jose, CA, USA). Data analysis included calculation of % LDH release using the following equation: […]
Experiments included three replicates per condition. Each experiment was repeated twice (executed three times total).
(§1) The following conditions were plated in triplicate.
Plates were incubated for 24 h at 37° C., 5% CO2. Cells were tested and data were analyzed by LDH assay.
Cells were plated in culture medium in 2 96-well plates at a density of 3.7×10^4 cells per well, and incubated overnight at 37° C., 5% CO2.
as §1
Cells were plated in culture medium in 2 96-well plates at a density of 3.7×10^4 cells per well, and incubated overnight at 37° C., 5% CO2. […]
The following conditions were plated in triplicate. […]

[2] = system: asymmetrical arginine methylation of NSC-34 cells; assay: Cellular asymmetric arginine methylation (800/700 fluorescence readout) in NSC-34 cells; assay type: cell-based, Mouse; details: 24 hour treatment
Protocol: On Day 0, NSC-34 Cells were plated in 48 wells of a 96 well plate, and CHO cells were plated in the other 48 wells of the same 96-well plate. NSC-34 cells were plated in DMEM/High glucose media. CHO cells were plated in Ham's F-12K (Kaighn's) Medium. Both cell lines were incubated overnight to reach approximately 50% confluency.
On Day 1, 24 wells of the NSC-34 cells and 24 wells of the CHO cells were treated with the following concentrations of MS023: 1 μM, 3 μM, 6 μM, 10 μM, 30 μM, and 60 μM. The cells were then incubated overnight.
On Day 2, 18 wells of the untreated NSC-34 cells and 18 wells of the untreated CHO cells were treated with the same concentrations of MS023 as those on Day 1. This left 6 wells of each cell line that never received MS023. Once MS023 was added, the cells were incubated overnight.
On Day 3, all media in the 96-well plate was removed and the cells were fixed with 3.7% Paraformaldehyde (PFA). Cells were then washed and permeabilized with 1×PBS/0.1% Triton X-100.
After removing the PBS/Triton wash, Odyssey Blocking Buffer (LI-COR, 927-40100) was applied to all wells and the plate sat at room temperature with moderate shaking for 90 minutes. After 90 minutes, the blocking buffer was removed and the cells were treated with a 1:500 dilution of the Anti-Asymmetric Di-Methyl Arginine Motif primary antibody (Cell Signaling Technology, #13522). Incubation with the primary antibody continued overnight at 4 degrees Celsius with no shaking.
On Day 4, the primary antibody solution was removed from the plate, and the cells were washed with 1×PBS/0.1% Tween 20. After washing, cells were given a secondary antibody mixture containing a 1:1000 dilution of IRDye 800 CW Anti-Rabbit antibody (LI-COR, 926-32211) and a 1:500 dilution of Cell Tag 700 Stain (LI-COR, 926-41090). The secondary antibody mixture remained on cells for 60 minutes with gentle shaking and protected from light.
(§2) After 60 minutes, the secondary antibody mixture was removed and the cells were again washed with 1×PBS/0.1% Tween 20. All wash buffer was then removed, and the plate was gently patted dry to remove excess solution. The plate was then read on the LI-COR Odyssey Classic Imaging System which provides results based on fluorescence. In this experiment, fluorescence occurred as a result of cellular, asymmetric arginine methylation. MS023 was given to cells for either 24 or 48 hours, with expectation for it to reduce cellular, asymmetric arginine methylation. Cell number per well was accounted for using the Cell Tag 700 Stain, which fluorescently labels total protein levels in a cell. To this effect, fluorescence from asymmetrical arginine methylation per well (800) was divided by fluorescence from the total protein level per well (700) to produce an outcome of 800/700.
On Day 1, 24 wells of the NSC-34 cells and 24 wells of the CHO cells were treated with the following concentrations of MS049: 0.2 μM, 1 μM, 2 μM, 10 μM, 20 μM, and 100 μM. The cells were then incubated overnight.
On Day 2, 18 wells of the untreated NSC-34 cells and 18 wells of the untreated CHO cells were treated with the same concentrations of MS049 as those on Day 1. This left 6 wells of each cell line that never received MS049. Once MS049 was added, the cells were incubated overnight.
as §2, with “MS049” for “MS023”, “To this effect, fluorescence from asymmetrical arginine methylation per well (800) was divided by fluorescence from the total protein level per well (700) to produce an outcome of 800/700.” left out

SMILES: CNCCN1CCC(OCc2ccccc2)CC1 [MS049]
- dose dependence of abrogation of GR15-induced cytotoxicity ([1]; 3 μM GR15, 24 h, dose range of the example): dose-dependently abrogated
- abrogation of GR-induced toxicity ([1]; 3 μM GR15, 24 h, doses 0.2, 1, 2, 20 and 100 μM): partially abrogated
- abrogation of GR-induced toxicity ([1]; 3 μM GR15, 24 h, doses 2 and 10 μM): completely abrogated
- abrogation of GR15-induced cytotoxicity ([1]; 3 μM GR15, doses 1 and 20 μM): partially abrogated
- dose dependence of abrogation of PR15-induced cytotoxicity ([1]; 3 μM PR15, 24 h, dose range of the example): dose-dependently abrogated
- abrogation of PR-induced toxicity ([1]; 3 μM PR15, 24 h, doses 0.2, 1, 2, 20 and 100 μM): partially abrogated
- abrogation of PR-induced toxicity ([1]; 3 μM PR15, 24 h, doses 2 and 10 μM): completely abrogated
- abrogation of PR15-induced cytotoxicity ([1]; 3 μM PR15, doses 1 and 20 μM): partially abrogated
- toxicity independently of GR and PR treatment ([1]; doses 100 and 20 μM): did cause significant toxicity; also recorded: did cause significant cytotoxicity
- toxicity independently of GR and PR treatment ([1]; other doses tested (0.2, 1, 2, 10 μM)): not at other doses tested
- decrease of asymmetrical arginine methylation ([2]; 1 μM, vs untreated cells): approximately 17%
- decrease of asymmetrical arginine methylation ([2]; 100 μM): ~39%
